US20250340575A1, “4-AMINOPYRROLO[2,1-F][1,2,4]TRIAZINES AND PREPARATION AND USES THEREOF” (Biosplice Therapeutics, Inc., priority 2024, published 2025)

Target: recombinant DYRK1A kinase (Homo sapiens, UniProt Q13627)
Assay: DYRK1A kinase assay (Ser/Thr 18 peptide Z-lyte FRET)
Assay type: biochemical
Conditions: DYRK1A 0.25 μg/mL, ATP 15 μM, Ser/Thr peptide 18 4 μM, one hour at room temperature, 11-point dose-response from 10 μM

## CNc1nc(N[C@H]2CCN(CCOC)C[C@H]2F)nn2ccc(-c3ccc4nnn(CC(F)F)c4n3)c12 [Compound 275, 5-(3-(2,2-Difluoroethyl)-3H-[1,2,3]triazolo[4,5-b]pyridin-5-yl)-N^2-((3R,4S)-3-fluoro-1-(2-methoxyethyl)piperidin-4-yl)-N^4-methylpyrrolo[2,1-f][1,2,4]triazine-2,4-diamine]
  IC50: 8.4 nM

## CNc1nc(N[C@@H]2CCN(C(=O)CO)CC2(F)F)nn2ccc(-c3ccc4nnn(CC(F)F)c4n3)c12 [Compound 276, (R)-1-(4-((5-(3-(2,2-Difluoroethyl)-3H-[1,2,3]triazolo[4,5-b]pyridin-5-yl)-4-(methylamino)pyrrolo[2,1-f][1,2,4]triazin-2-yl)amino)-3,3-difluoropiperidin-1-yl)-2-hydroxyethan-1-one]
  IC50: 1.2 nM

## CNc1nc(N[C@H]2CC[C@](C)(O)CC2)nn2cc(F)c(-c3ccc4nnn(CC(F)F)c4n3)c12 [Compound 286, (1r,4r)-4-((5-(3-(2,2-Difluoroethyl)-3H-[1,2,3]triazolo[4,5-b]pyridin-5-yl)-6-fluoro-4-(methylamino)pyrrolo[2,1-f][1,2,4]triazin-2-yl)amino)-1-methylcyclohexan-1-ol]
  IC50: 3.6 nM

## CNc1nc(N[C@H]2CCN(C(C)=O)C[C@H]2F)nn2cc(F)c(-c3ccc4nnn(CC(F)F)c4n3)c12 [Compound 288, 1-((3R,4S)-4-((5-(3-(2,2-Difluoroethyl)-3H-[1,2,3]triazolo[4,5-b]pyridin-5-yl)-6-fluoro-4-(methylamino)pyrrolo[2,1-f][1,2,4]triazin-2-yl)amino)-3-fluoropiperidin-1-yl)ethan-1-one]
  IC50: 2.4 nM

## CNc1nc(N[C@H]2CCN(C3COC3)C[C@H]2F)nn2cc(F)c(-c3ccc4nnn(CC(F)F)c4n3)c12 [Compound 290, 5-(3-(2,2-Difluoroethyl)-3H-[1,2,3]triazolo[4,5-b]pyridin-5-yl)-6-fluoro-N^2-((3R,4S)-3-fluoro-1-(oxetan-3-yl)piperidin-4-yl)-N^4-methylpyrrolo[2,1-f][1,2,4]triazine-2,4-diamine]
  IC50: 1.2 nM

## CNc1nc(N[C@@H]2CCN(C)CC2(F)F)nn2cc(F)c(-c3ccc4nnn(CC(F)F)c4n3)c12 [Compound 291, (R)—N^2-(3,3-Difluoro-1-methylpiperidin-4-yl)-5-(3-(2,2-difluoroethyl)-3H-[1,2,3]triazolo[4,5-b]pyridin-5-yl)-6-fluoro-N^4-methylpyrrolo[2,1-f][1,2,4]triazine-2,4-diamine]
  IC50: 1.2 nM

## CNc1nc(N[C@@H]2CCN(C(C)=O)CC2(F)F)nn2cc(F)c(-c3ccc4nnn(CC(F)F)c4n3)c12 [Compound 293, (R)-1-(4-((5-(3-(2,2-Difluoroethyl)-3H-[1,2,3]triazolo[4,5-b]pyridin-5-yl)-6-fluoro-4-(methylamino)pyrrolo[2,1-f][1,2,4]triazin-2-yl)amino)-3,3-difluoropiperidin-1-yl)ethan-1-one]
  IC50: 1.9 nM

## CNc1nc(N[C@@H]2CCN(C3COC3)CC2(F)F)nn2cc(F)c(-c3ccc4nnn(CC(F)F)c4n3)c12 [Compound 295, (R)—N^2-(3,3-Difluoro-1-(oxetan-3-yl)piperidin-4-yl)-5-(3-(2,2-difluoroethyl)-3H-[1,2,3]triazolo[4,5-b]pyridin-5-yl)-6-fluoro-N^4-methylpyrrolo[2,1-f][1,2,4]triazine-2,4-diamine]
  IC50: 1.4 nM

## CNc1nc(N[C@H]2CCN(C)C[C@H]2F)nn2ccc(-c3ccc4nnn(CCCF)c4n3)c12 [Compound 333, N^2-((3R,4S)-3-Fluoro-1-methylpiperidin-4-yl)-5-(3-(3-fluoropropyl)-3H-[1,2,3]triazolo[4,5-b]pyridin-5-yl)-N^4-methylpyrrolo[2,1-f][1,2,4]triazine-2,4-diamine]
  IC50: 11.2 nM

## CNc1nc(N[C@H]2CCN(C(C)=O)C[C@H]2F)nn2ccc(-c3ccc4nnn(CCCF)c4n3)c12 [Compound 335, 1-((3R,4S)-3-Fluoro-4-((5-(3-(3-fluoropropyl)-3H-[1,2,3]triazolo[4,5-b]pyridin-5-yl)-4-(methylamino)pyrrolo[2,1-f][1,2,4]triazin-2-yl)amino)piperidin-1-yl)ethan-1-one]
  IC50: 3.4 nM

## CNc1nc(N[C@H]2CCN(C3COC3)C[C@H]2F)nn2ccc(-c3ccc4nnn(CCCF)c4n3)c12 [Compound 337, N^2-((3R,4S)-3-Fluoro-1-(oxetan-3-yl)piperidin-4-yl)-5-(3-(3-fluoropropyl)-3H-[1,2,3]triazolo[4,5-b]pyridin-5-yl)-N^4-methylpyrrolo[2,1-f][1,2,4]triazine-2,4-diamine]
  IC50: 4.4 nM

## CNc1nc(N[C@@H]2CCN(C)CC2(F)F)nn2ccc(-c3ccc4nnn(CCCF)c4n3)c12 [Compound 338, (R)—N^2-(3,3-Difluoro-1-methylpiperidin-4-yl)-5-(3-(3-fluoropropyl)-3H-[1,2,3]triazolo[4,5-b]pyridin-5-yl)-N^4-methylpyrrolo[2,1-f][1,2,4]triazine-2,4-diamine]
  IC50: 3.1 nM

## CNc1nc(N[C@@H]2CCN(C(C)=O)CC2(F)F)nn2ccc(-c3ccc4nnn(CCCF)c4n3)c12 [Compound 339, (R)-1-(3,3-Difluoro-4-((5-(3-(3-fluoropropyl)-3H-[1,2,3]triazolo[4,5-b]pyridin-5-yl)-4-(methylamino)pyrrolo[2,1-f][1,2,4]triazin-2-yl)amino)piperidin-1-yl)ethan-1-one]
  IC50: 3.5 nM

## CCNc1nc(N[C@H]2CCN(C3COC3)C[C@H]2F)nn2ccc(-c3ccc4nnn(CC(F)F)c4n3)c12 [Compound 403, 5-(3-(2,2-Difluoroethyl)-3H-[1,2,3]triazolo[4,5-b]pyridin-5-yl)-N^4-ethyl-N^2-((3R,4S)-3-fluoro-1-(oxetan-3-yl)piperidin-4-yl)pyrrolo[2,1-f][1,2,4]triazine-2,4-diamine]
  IC50: 4.2 nM

## CC(C)Nc1nc(N[C@H]2CCN(C3COC3)C[C@H]2F)nn2ccc(-c3ccc4nnn(CC(F)F)c4n3)c12 [Compound 411, 5-(3-(2,2-Difluoroethyl)-3H-[1,2,3]triazolo[4,5-b]pyridin-5-yl)-N^2-((3R,4S)-3-fluoro-1-(oxetan-3-yl)piperidin-4-yl)-N^4-isopropylpyrrolo[2,1-f][1,2,4]triazine-2,4-diamine]
  IC50: 9.7 nM

## FC(F)Cn1nnc2ccc(-c3ccn4nc(N[C@H]5CCN(C6COC6)C[C@H]5F)nc(NC5CC5)c34)nc21 [Compound 419, N^4-Cyclopropyl-5-(3-(2,2-difluoroethyl)-3H-[1,2,3]triazolo[4,5-b]pyridin-5-yl)-N^2-((3R,4S)-3-fluoro-1-(oxetan-3-yl)piperidin-4-yl)pyrrolo[2,1-f][1,2,4]triazine-2,4-diamine]
  IC50: 8.2 nM
